According to US11661423B2, “Heterocyclic compounds as RET kinase inhibitors” (Cancer Research Technology Limited, priority 2016, dated 2023):

target: RET (Homo sapiens (Human), UniProt P07949); experiment: RET enzyme assay (CisBio HTRF kinEASE); type: biochemical
Sequence (P07949 29-1114): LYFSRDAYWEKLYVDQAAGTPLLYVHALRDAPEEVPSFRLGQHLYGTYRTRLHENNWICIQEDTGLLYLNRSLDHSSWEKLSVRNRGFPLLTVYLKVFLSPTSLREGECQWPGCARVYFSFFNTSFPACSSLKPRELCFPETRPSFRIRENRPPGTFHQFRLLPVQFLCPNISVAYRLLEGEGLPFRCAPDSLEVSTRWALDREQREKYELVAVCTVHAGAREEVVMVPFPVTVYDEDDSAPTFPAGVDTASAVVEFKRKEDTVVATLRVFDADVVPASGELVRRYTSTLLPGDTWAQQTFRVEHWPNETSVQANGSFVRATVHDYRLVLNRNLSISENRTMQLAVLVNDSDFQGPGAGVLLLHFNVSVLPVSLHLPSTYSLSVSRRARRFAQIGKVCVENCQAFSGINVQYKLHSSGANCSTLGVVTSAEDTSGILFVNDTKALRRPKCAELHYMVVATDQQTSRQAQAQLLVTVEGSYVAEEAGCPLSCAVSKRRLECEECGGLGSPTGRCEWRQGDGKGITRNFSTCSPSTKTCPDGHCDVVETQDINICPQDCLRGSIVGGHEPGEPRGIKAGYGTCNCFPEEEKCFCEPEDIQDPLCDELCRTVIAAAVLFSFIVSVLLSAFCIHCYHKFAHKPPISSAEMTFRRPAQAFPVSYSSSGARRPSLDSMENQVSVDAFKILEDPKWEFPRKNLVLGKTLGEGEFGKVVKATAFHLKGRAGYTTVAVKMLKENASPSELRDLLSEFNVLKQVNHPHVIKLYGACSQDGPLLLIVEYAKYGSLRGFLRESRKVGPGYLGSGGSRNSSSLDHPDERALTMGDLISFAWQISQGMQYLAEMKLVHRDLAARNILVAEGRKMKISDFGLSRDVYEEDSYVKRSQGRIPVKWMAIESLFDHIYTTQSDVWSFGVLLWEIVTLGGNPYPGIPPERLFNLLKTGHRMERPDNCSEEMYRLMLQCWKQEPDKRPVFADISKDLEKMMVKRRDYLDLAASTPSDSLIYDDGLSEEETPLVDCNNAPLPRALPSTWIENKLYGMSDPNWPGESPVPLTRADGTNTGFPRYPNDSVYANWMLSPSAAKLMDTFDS

Activity in the assays described in the Examples section, did not exhibit the desired activity:
Nc1ncnc2c1c(-c1[nH]c3ccccc3c1Cl)nn2CC1CCNC1 (centres unmarked) [3-(3-chloro-1H-indol-2-yl)-1-(pyrrolidin-3-ylmethyl)-1H-pyrazolo[3,4-d]pyrimidin-4-amine]
CC(C)CCn1nc(-c2[nH]c3ccccc3c2Cl)c2c(N)ncnc21 [3-(3-Chloro-1H-indol-2-yl)-1-isopentyl-1H-pyrazolo[3,4-d]pyrimidin-4-amine]
Cn1nc(-c2[nH]c3ncccc3c2Cl)c2c(N)ncnc21 [Example 65, 3-(3-Chloro-1H-pyrrolo[2,3-b]pyridin-2-yl)-1-methyl-pyrazolo[3,4-d]pyrimidin-4-amine]
CC(C)(C)n1nc(-c2cc3ncccc3[nH]2)c2c(N)ncnc21 [1-tert-butyl-3-(1H-pyrrolo[3,2-b]pyridin-2-yl)pyrazolo[3,4-d]pyrimidin-4-amine]
Nc1ncnc2c1c(-c1[nH]c3ncccc3c1Cl)nn2CC(=O)O [2-(4-amino-3-(3-chloro-1H-pyrrolo[2,3-b]pyridin-2-yl)-1H-pyrazolo[3,4-d]pyrimidin-1-yl)acetic acid]
